From patent US10519133B2, “Vinyl compounds as FGFR and VEGFR inhibitors” (MEDSHINE DISCOVERY INC., priority 2015, dated 2019)

Assays:
SNU-16 cell = assay: CellTiter-Glo Luminescent Cell Viability Assay; format: cell-based; details: Homo sapiens, 72 h; SNU-16 cells, 3 days; read-out: SNU-16 IC50 (CellTiter-Glo Detection)
Description: To detect the change of intracellular ATP by CellTiter-Glo® Luminescent Cell Viability Assay, and to evaluate the inhibitory effect of the compounds on in vitro cell SNU-16 using IC50 value of the compounds as an indicator.
Cell line: SNU-16 cell strain d. Diluting SNU-16 with medium, adding the diluted cells to the 384 plate (Greiner. 781090) (50 μL/well, SNU-16 cell 750 cells/well) with multi-channel pipette. Placing the cell plate in a 37° C., 5% CO2 incubator overnight. […]
g. Diluting the compound with DMSO to 10 mM, 3-fold dilution, 11 gradients, duplicate wells. h. Transferring 2.4 ul of the compound to the middle plate added with 47.6 ul of cell culture media at Bravo Automatic Liquid Station. Then transferring 5 ul to the cell culture plate (55 ul) to ensure the final DMSO concentration to be 0.4%. […]
i. Placing the cell culture plate in 5% CO2 incubator at 37° C. to continue cultivating for 3 days. d. Balancing Cell Titer Glo Reagent to room temperature e. Taking 30 ul of Cell Titer Glo Reagent in a 1:2 ratio into each well and gently mixing for 2 minutes f. Placing the cell culture plate in an incubator (23° C.) for 10 minutes, taking out and centrifuging at 1000 rpm for 1 minute g. Reading on Envision (Perkin Elmer) Plate Reader.
H. Analyzing Data: Analyzing the Data Using XLFIT (IDBS) and Calculating IC50 Values for the Compounds.

[1] = system: FGFR1/2 Highly Expressed Patient-derived Liver Tumor Transplantation Model; assay: Tumor growth inhibition (TGI) analysis; format: in vivo, mice; details: BID
Description: The evolutionary growth potential of tumors was evaluated by the relationship between tumor volume and time. The long axis (L) and short axis (W) of the subcutaneous tumor were measured twice a week by the caliper and the tumor volume (TV) was calculated by the formula ((L×W^2)/2). TGI was calculated from the difference between the median tumor volume in the solvent group mice and the median tumor volume in the drug group mice, expressed as a percentage counting for the median tumor volume in the solvent control group, calculated by the following formula: % TGI=((median tumor volume(control)−median tumor volume(dosing group))/median tumor volume(control group))×100
The original statistical analysis was done by repeating the analysis of variance, followed by Scheffe psot hoc experimental method for multiple comparisons, with solvent alone (0.5% methylcellulose+0.2% Tween in water) as negative control.

FGFR1 = target: T1, FGFR1 (Homo sapiens, UniProt P11362); assay: Z′-LYTE Detection Kinase Assay, in vitro enzymatic activity; format: biochemical; details: 0.6 nM FGFR1, 2 uM Tyr4 peptide, 10 uM ATP, 60 min 23° C.
T1 construct: purchased Invitrogen PV4105
Description: To measure enzyme activity by Z′-LYTE™ Detection Kinase Assay, and to evaluate the inhibitory effect of the compounds on FGFR1 using IC50 value of the compounds as an indicator. […]
Reaction Buffer: 50 mM Hepes (pH 7.5), 10 mM MgCl2, 1 mM EGTA, 0.01% Brij-35, 1 mM DTT, 2 mM MnCl2 0.6 nM FGFR1, 2 uM Tyr4 peptide and 10 uM ATP in reaction buffer (50 mM Hepes, pH 7.5, 10 mM MgCl2, 0.01% BRIJ-35, 1 mM EGTA, 4 mM MnCl2, 2 mM DTT). a. Diluting the compounds with DMSO to 10 mM, 3-fold dilution, 11 gradients, duplicate wells. b. Diluting the compound by 1:25 into middle plate at Bravo Automatic Liquid Station, then transferring 2.5 ul to the reaction plate to ensure the final DMSO concentration to be 1%. c. Transferring 5 ul of enzyme/substrate buffer into each well d. Using Multidrop Liquid Workstation to sequentially add ATP solution to each well e. Centrifuging at 1000 rpm for 1 minute f. Placing the reaction plate in an incubator at 23° C. to react for 60 min. a. Preparing a 1:128 mixture of Development Regent B and Development Buffer b. Adding 5 ul to each well and centrifuging at 1000 rpm for 1 minute c. Placing the reaction plate in a thermostat (23° C.) after centrifuging for 90 minutes, removing and reading on Envision (Perkin Elmer) Plate Reader
D. Analyzing Data: Analyzing Data Using XLFIT (IDBS) and Calculating IC50 Values for the Compounds.

[2] = female, Balb/c nude, mouse, in vivo, 2 mg/kg
Description: (§1) Experimental Procedure: A clear solution of the test compound in 20% DMSO/60% PEG400/20% water at 0.4 mg/ml was administered by intragastric administration to female Balb/c nude mice (fasted overnight, 7-9 weeks of age) with a dose of 2 mg/kg. About 30 μL of blood was collected from the jugular vein or caudal vein at 0.25, 0.5, 1.0, 2.0, 4.0, 8.0 and 24 h after administration in both groups of animals, placed in anticoagulation tube with EDTA-K2 and the plasma was centrifuged. Plasma concentrations were determined by LC-MS/MS and related pharmacokinetic parameters were calculated using the non-compartmental model linear logarithmic trapezoidal method using WinNonlin™ Version 6.3 (Pharsight, Mountain View, Calif.) pharmacokinetic software.

in vivo = details: female, Balb/c nude, mouse, po, 2 mg/kg
Description: as §1

T1 sequence (P11362 22-822): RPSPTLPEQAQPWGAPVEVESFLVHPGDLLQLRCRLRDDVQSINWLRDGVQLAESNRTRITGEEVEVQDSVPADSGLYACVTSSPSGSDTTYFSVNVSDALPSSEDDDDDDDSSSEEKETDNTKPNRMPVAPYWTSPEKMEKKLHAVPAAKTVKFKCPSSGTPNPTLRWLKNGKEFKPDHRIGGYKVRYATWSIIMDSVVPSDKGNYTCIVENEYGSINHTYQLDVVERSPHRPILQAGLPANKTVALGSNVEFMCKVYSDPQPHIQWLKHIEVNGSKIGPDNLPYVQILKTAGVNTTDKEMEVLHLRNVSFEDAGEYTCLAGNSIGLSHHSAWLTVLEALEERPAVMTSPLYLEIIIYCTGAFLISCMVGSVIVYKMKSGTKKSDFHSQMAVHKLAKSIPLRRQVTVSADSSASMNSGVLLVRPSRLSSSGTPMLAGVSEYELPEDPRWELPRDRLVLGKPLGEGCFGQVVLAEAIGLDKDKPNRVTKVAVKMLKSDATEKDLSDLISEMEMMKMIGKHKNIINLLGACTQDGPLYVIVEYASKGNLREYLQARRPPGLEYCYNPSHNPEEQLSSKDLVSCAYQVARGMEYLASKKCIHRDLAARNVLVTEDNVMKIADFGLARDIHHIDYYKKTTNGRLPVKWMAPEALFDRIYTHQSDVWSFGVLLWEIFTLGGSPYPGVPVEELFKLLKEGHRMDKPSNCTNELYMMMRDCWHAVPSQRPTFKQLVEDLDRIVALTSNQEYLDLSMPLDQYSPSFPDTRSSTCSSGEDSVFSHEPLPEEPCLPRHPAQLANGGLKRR

With CC(Oc1ccc2[nH]nc(/C=C(\F)c3ccc(CN4CCOCC4)nc3)c2c1)c1c(Cl)cncc1Cl (stereo not drawn) [Example 16] the IC50 (SNU-16 cell) was ≤ 10 nM, the “TGI % (last administration)” value ([1]; 15 mg/kg) was 84.5% and the IC50 (FGFR1) was 10 to 50 nM.

In the case of C[C@@H](Oc1ccc2[nH]nc(/C=C(\F)c3ccc(CNC4CCOCC4)nc3)c2c1)c1c(Cl)cncc1Cl [Example 18], the “TGI % (last administration)” value ([1]; 5 mg/kg) is reported as 85% and the IC50 (FGFR1) is reported as ≤ 10 nM.

For CC(Oc1ccc2[nH]nc(/C=C/c3ccc(CN4CCOCC4)nn3)c2c1)c1c(Cl)cncc1Cl (stereo not drawn) [Example 54], the “TGI % (last administration)” value ([1]; 10 mg/kg) was 85.4% and the IC50 (FGFR1) was ≤ 10 nM.

For CC(Oc1ccc2[nH]nc(/C=C/c3ccc(CN4CCOCC4)cc3)c2c1)c1c(Cl)cncc1Cl (stereo not drawn) [Example 63], the “TGI % (last administration)” value ([1]; 15 mg/kg) was 86% and the IC50 (FGFR1) was 10 to 50 nM.

With CC(Oc1ccc2[nH]nc(/C=C/c3ccc(CN4CCOCC4)cc3)c2c1)c1c(Cl)cncc1Cl (stereo not drawn) [WX_063] the peak time [2] was 0.25 h, the AUC(0-t) (in vivo) was 0.221 ± 0.0713 µM·h and the Cmax (in vivo) was 214 ± 39.7 nM.
